{"source": "patent US11759480B2", "about": "“Compositions and methods for CAR T cell therapy” (ENDOCYTE, INC., priority 2017, dated 2023)", "key": {"[1]": {"tested_on": "MDA-MB-231 solid tumor xenografts", "experiment": "Anti-tumor efficacy and toxicity of CAR T cells with EC17 in vivo (Example 17)", "design": "species or system NSG mice", "method": "Immunodeficient NSG mice (Jackson Laboratory) were used to identify the efficacy of CAR T cell anti-tumor activity in vivo. A folate receptor expressing MDA-MB-231 cancer cell line was subcutaneously injected into the back of NSG mice to establish solid tumor xenografts. When tumor volume of around 100-300 mm^3 was reached, a desired concentration of EC17 (as shown in the figure legends) was introduced 4 hours before the administration of a desired number of CAR T cell (as shown in the figure legends) into the mice bearing tumors. After initial administration of EC17 and CAR T cells, desired concentrations of EC17 (as shown in the figure legends) were also introduced (i.v.) three times per week. Control mice were administered T cells without CAR modification. Other control mice were administrated CAR-Ts, but PBS was dosed instead of EC17. Anti-tumor efficacy was monitored by tumor volume. General toxicity of the therapy was monitored by weight loss, gross animal morphology and behavior."}, "[2]": {"tested_on": "OV90", "experiment": "EC17 dependent anti-tumor activity, OV90 xenograft (Example 26)", "assay_type": "in vivo, NSG mice", "details": "500 nmoles/kg once per week, 5 million CAR-T", "from_the_text": "Immunodeficient NSG mice (Jackson Laboratory) were used to show the efficacy of CAR T cell anti-tumor activity with a single dose of EC17 per week. Two folate receptor expressing cancer cell lines were used to establish subcutaneous solid tumor xenografts: MDA-MB-231 has high folate receptor expression, while OV90 has low folate receptor expression. When tumor volume of around 100-250 mm^3 was reached, mice were divided into two groups. Mice in the “EC17 500 nmol/kg” group (nmol/kg is equivalent to nmoles/kg as used in this patent application for the bridge) were injected with 500 nmoles/kg of body weight of EC17, while mice in the “no EC17” group were not injected with EC17. Four hours later, mice in both groups were administered 5 million anti-FITC CAR-T cells. After initial administration of EC17 and CAR-T cells, only mice in the “EC17 500 nmol/kg” group were injected (i.v.) with 500 nmoles/kg of EC17 once per week. Anti-tumor efficacy was monitored by tumor volume."}, "[3]": {"tested_on": "FR+ MDA-MB-231 tumors", "experiment": "FITC-CAR-T toxicity and spleen size in MDA-MB-231 s.c. model (Example 37)", "assay_type": "in vivo, mice", "method": "(§1) The evaluation of FITC-CAR-T proliferation and related toxicity in both naïve mice and mice bearing FR+ tumor xenografts was tested. To evaluate whether FITC-CAR-T proliferation in vivo is dependent on the co-existence of the bridge (e.g. EC17) and the tumor antigen (e.g. folate receptor), FITC-CAR-T proliferation in vivo was compared in naïve mice and mice bearing FR+ tumor xenografts, either with or without EC17. 5-8 million CAR-T cells (as indicated in FIGS. 42 and 43) were administered (i.v.) into naïve mice without tumors and mice bearing FR+ tumor xenografts (80-200 mm3). 500 nmol/kg EC17 was dosed 4 hours before and three times per week post CAR-T administration, if desired. Mice were monitored for body weight changes and CAR-T cell count in blood circulation; some mice were also euthanized weekly to evaluate organs. […] CAR-T cell count in blood samples was also compared to evaluate CAR-T proliferation. […] Since the enlargement of spleen size is another indicator for CAR-T proliferation in vivo, spleen size was also measured as shown in FIG. 43B.\nFor FIG. 42, the MDA-MB-231 s.c. model was used. For FIG. 43A, the HEK-FRa s.c. xenograft model was used. For FIG. 43B, the MDA-MB-231 s.c. model was used."}, "[4]": {"tested_on": "naïve mice without tumors", "experiment": "FITC-CAR-T proliferation, toxicity and cytokines in naïve mice (Example 37)", "assay_type": "in vivo", "method": "as §1, with “43B. […]” for “43B.”\nCytokine levels including IFN were measured using LEGENDplex human cytokine panel kits (BioLegend, San Diego, Calif.) according to the manufacturer's instructions. Plasma samples were diluted with Assay Buffer, and then mixed with Capture beads immobilized with the antibody directed to the analyzed cytokine. After 2 hours incubation at room temperature with shaking, biotinylated Detection antibody to the analyzed cytokine was added and incubated for one more hour at room temperature with shaking. Phycoerythrin (PE) labeled streptavidin was then added to bind with biotin on the Detection antibody, and FACS was used to read the signal of PE on the binding complex (capture antibody-cytokine-detection antibody). The intensity of PE is proportional to the level of analyzed cytokine. A series of cytokine solutions with known concentrations were measured at the same time and used as standards to quantitate the cytokine levels in the analyzed samples."}, "[5]": {"details": "500 nmol/kg three times per week"}}}
{"smiles": "Nc1nc2ncc(CNc3ccc(C(=O)NC(CCC(=O)NCCNC(=S)Nc4ccc(-c5c6ccc(=O)cc-6oc6cc(O)ccc56)c(C(=O)O)c4)C(=O)O)cc3)nc2c(=O)[nH]1", "note": "(centres unmarked) [EC17, FITC-Folate]", "values": [{"measurement": "effect of changing dosing frequency from TIW to SIW", "setting": "[1]; 5 million CAR T cells", "result": "reduce the toxicity and achieve better anti-tumor potency"}, {"measurement": "anti-tumor outcome", "setting": "[1]; EC17 20 and 100 nmoles/kg", "result": "complete cures"}, {"measurement": "sCRS and body weight loss compared to 500 nmoles/kg cohort", "setting": "[1]; EC17 20 and 100 nmoles/kg", "result": "a lower percentage of sCRS and less body weight loss"}, {"measurement": "body weight loss", "setting": "[1]; optimized EC17 amount and CAR T numbers, complete cures reached", "result": 2, "unit": "%"}, {"measurement": "sCRS and cures", "setting": "[1]; over-saturated EC17 doses 1500 and 10000 nmoles/kg", "result": "less mice showed sCRS but less mice reached cures"}, {"measurement": "anti-tumor activity", "setting": "[2]", "result": "EC17 dependent anti-tumor activity"}, {"measurement": "spleen size", "setting": "[3]; [5]", "result": "enlarged spleens"}, {"measurement": "body weight", "setting": "[3]; EC17 three times per week", "result": "body weight loss in the first 10 days"}, {"measurement": "cytokine production (CAR-T activity)", "setting": "[4]; [5]", "result": "not active in naïve mice"}, {"measurement": "body weight", "setting": "[4]; 500 nmol/kg three times per week or no EC17", "result": "did not show any apparent body weight loss"}, {"measurement": "FITC-CAR-T proliferation", "setting": "[4]; 5 or 8 million FITC-CAR-T cells", "result": "did not proliferate in naïve mice"}]}
